Values after ≈ are worked out from the molar mass of the structure shown.
Columns and labels:
Assay type in all cases: functional
Klebsiella pneumoniae [1] = assay: Antimicrobial activity against Klebsiella pneumoniae isolate 132 transconjugant expressing aac(6')-Ib-cr gene
Escherichia coli [2] = assay: Antimicrobial activity against Escherichia coli isolate 17 expressing aac(6')-Ib-cr gene
Klebsiella pneumoniae [3] = assay: Antimicrobial activity against Klebsiella pneumoniae isolate 132 expressing aac(6')-Ib-cr gene
Enterobacter cloacae [4] = assay: Antimicrobial activity against Enterobacter cloacae isolate 101 transconjugant expressing aac(6')-Ib-cr gene
Klebsiella pneumoniae [5] = assay: Antimicrobial activity against Klebsiella pneumoniae isolate 202 transconjugant expressing aac(6')-Ib-cr gene
Enterobacter cloacae [6] = assay: Antimicrobial activity against Enterobacter cloacae isolate 37 expressing aac(6')-Ib-cr gene
Klebsiella pneumoniae [7] = assay: Antimicrobial activity against Klebsiella pneumoniae isolate 135 expressing aac(6')-Ib-cr gene
Enterobacter cloacae [8] = assay: Antimicrobial activity against Enterobacter cloacae isolate 101 expressing aac(6')-Ib-cr gene
Escherichia coli [9] = assay: Antimicrobial activity against azide-resistant Escherichia coli J53
Escherichia coli [10] = assay: Antimicrobial activity against Escherichia coli isolate 17 transconjugant expressing aac(6')-Ib-cr gene
Enterobacter cloacae [11] = assay: Antimicrobial activity against Enterobacter cloacae isolate 153 expressing aac(6')-Ib-cr gene
Enterobacter cloacae [12] = assay: Antimicrobial activity against Enterobacter cloacae isolate 37 transconjugant expressing aac(6')-Ib-cr gene
Klebsiella pneumoniae [13] = assay: Antimicrobial activity against Klebsiella pneumoniae isolate 202 expressing aac(6')-Ib-cr gene
Escherichia coli [14] = assay: Antimicrobial activity against Escherichia coli isolate 48 expressing aac(6')-Ib-cr gene
Escherichia coli [15] = assay: Antimicrobial activity against Escherichia coli isolate 48 transconjugant expressing aac(6')-Ib-cr gene
Klebsiella pneumoniae [16] = assay: Antimicrobial activity against Klebsiella pneumoniae isolate 135 transconjugant expressing aac(6')-Ib-cr gene
Enterobacter cloacae [17] = assay: Antimicrobial activity against Enterobacter cloacae isolate 153 transconjugant expressing aac(6')-Ib-cr gene
Escherichia coli [18] = assay: Ratio of MIC for Escherichia coli isolate 48 transconjugant to MIC for azide-resistant Escherichia coli […]
Escherichia coli [19] = assay: Ratio of MIC for Escherichia coli isolate 17 transconjugant to MIC for azide-resistant Escherichia coli […]

Compound | MIC (Klebsiella pneumoniae [1]) [µg/mL] | MIC (Escherichia coli [2]) [µg/mL] | MIC (Klebsiella pneumoniae [3]) [µg/mL] | MIC (Enterobacter cloacae [4]) [µg/mL] | MIC (Klebsiella pneumoniae [5]) [µg/mL] | MIC (Enterobacter cloacae [6]) [µg/mL] | MIC (Klebsiella pneumoniae [7]) [µg/mL] | MIC (Enterobacter cloacae [8]) [µg/mL] | MIC (Escherichia coli [9]) [µg/mL] | MIC (Escherichia coli [10]) [µg/mL] | MIC (Enterobacter cloacae [11]) [µg/mL] | MIC (Enterobacter cloacae [12]) [µg/mL] | MIC (Klebsiella pneumoniae [13]) [µg/mL] | MIC (Escherichia coli [14]) [µg/mL] | MIC (Escherichia coli [15]) [µg/mL] | MIC (Klebsiella pneumoniae [16]) [µg/mL] | MIC (Enterobacter cloacae [17]) [µg/mL] | fold change (FC) (Escherichia coli [18]) | fold change (FC) (Escherichia coli [19])
CC(C)(O/N=C(\C(=O)N[C@@H]1C(=O)N2C(C(=O)[O-])=C(C[n+]3ccccc3)CS[C@H]12)c1csc(N)n1)C(=O)O [CEFTAZIDIME] | 16 (≈ 29.3 µM) | 32 (≈ 58.5 µM) | 32 (≈ 58.5 µM) | 2 (≈ 3.66 µM) | 1 (≈ 1.83 µM) | 8 (≈ 14.6 µM) | > 32 | > 32 | 0.25 (≈ 0.457 µM) | 16 (≈ 29.3 µM) | > 32 | 2 (≈ 3.66 µM) | > 32 | > 32 | > 32 | > 32 | 1 (≈ 1.83 µM) | – | –
CO/N=C(\C(=O)N[C@@H]1C(=O)N2C(C(=O)O)=C(COC(C)=O)CS[C@H]12)c1csc(N)n1 [CEFOTAXIME] | > 256 | 256 (≈ 562 µM) | > 256 | 32 (≈ 70.3 µM) | 16 (≈ 35.1 µM) | 128 (≈ 281 µM) | 256 (≈ 562 µM) | 256 (≈ 562 µM) | 0.06 (≈ 0.132 µM) | 256 (≈ 562 µM) | 256 (≈ 562 µM) | 64 (≈ 141 µM) | > 256 | > 256 | > 256 | 256 (≈ 562 µM) | 32 (≈ 70.3 µM) | – | –
O=C(O)c1cn(C2CC2)c2cc(N3CCNCC3)c(F)cc2c1=O [CIPROFLOXACIN] | 0.03 (≈ 0.0905 µM) | > 16 | 0.125 (≈ 0.377 µM) | – | 0.03 (≈ 0.0905 µM) | – | > 16 | – | – | – | – | – | > 16 | > 16 | – | 1 (≈ 3.02 µM) | – | – | –
GENTAMICIN | 32 | > 32 | > 32 | 0.25 | > 32 | > 32 | > 32 | > 32 | 0.25 | 32 | > 32 | > 32 | > 32 | 0.25 | 0.25 | > 32 | > 32 | – | –
NC[C@H]1O[C@H](O[C@H]2[C@H](O)[C@@H](O[C@H]3O[C@H](CO)[C@@H](O)[C@H](N)[C@H]3O)[C@H](N)C[C@@H]2N)[C@H](N)C[C@@H]1O [TOBRAMYCIN] | 16 (≈ 34.2 µM) | > 16 | > 16 | 2 (≈ 4.28 µM) | > 16 | > 16 | > 16 | > 16 | 0.25 (≈ 0.535 µM) | 16 (≈ 34.2 µM) | > 16 | > 16 | > 16 | 16 (≈ 34.2 µM) | 8 (≈ 17.1 µM) | > 16 | > 16 | – | –
CCn1cc(C(=O)O)c(=O)c2ccc(C)nc21 [NALIDIXIC ACID] | 8 (≈ 34.4 µM) | > 256 | 8 (≈ 34.4 µM) | 8 (≈ 34.4 µM) | 8 (≈ 34.4 µM) | > 256 | > 256 | > 256 | 8 (≈ 34.4 µM) | 8 (≈ 34.4 µM) | > 256 | 8 (≈ 34.4 µM) | > 256 | > 256 | 8 (≈ 34.4 µM) | 32 (≈ 138 µM) | 8 (≈ 34.4 µM) | – | –
COc1c(N2C[C@@H]3CCCN[C@@H]3C2)c(F)cc2c(=O)c(C(=O)O)cn(C3CC3)c12 [MOXIFLOXACIN] | 0.06 (≈ 0.149 µM) | > 16 | 0.125 (≈ 0.311 µM) | – | 0.06 (≈ 0.149 µM) | – | > 16 | – | – | – | – | – | 16 (≈ 39.9 µM) | – | – | 1 (≈ 2.49 µM) | – | – | –
CCn1cc(C(=O)O)c(=O)c2cc(F)c(N3CCNCC3)cc21 [NORFLOXACIN] | 0.125 (≈ 0.391 µM) | > 16 | 0.5 (≈ 1.57 µM) | 0.25 (≈ 0.783 µM) | 0.125 (≈ 0.391 µM) | > 16 | > 16 | > 16 | 0.06 (≈ 0.188 µM) | 0.25 (≈ 0.783 µM) | > 16 | 0.25 (≈ 0.783 µM) | > 16 | > 16 | 0.25 (≈ 0.783 µM) | 8 (≈ 25.1 µM) | 0.25 (≈ 0.783 µM) | 2 | 2
